In publication PMC7503500, “A Structure-Activity Relationship Comparison of Imidazodiazepines Binding at Kappa, Mu, and Delta Opioid Receptors and the GABAA Receptor” (Molecules, 2020):
Read-outs that look alike come from different tables or passages of the source.

How the values were obtained:
[1] = system: synaptic benzodiazepine-sensitive receptors (BZR), GABAAR; assay: 3H-flunitrazepam binding, rat brain homogenate; conditions: for BZR % (percent inhibition): at 10,000 nM; for Ki: read-out: BZR (Ki)
κ opioid receptor (KOR) = κ opioid receptor (KOR) (Homo sapiens, UniProt P41145); assay: Radioligand competition binding, KOR ([3H]-U69593), HEK293 cell homogenates; conditions: for inhibition at 10 µM: read-out: KOR % (percent inhibition), at 10,000 nM; for inhibition at 10 µM / KOR % (percent inhibition): [3H]-U69593; for KOR % (percent inhibition): at 10,000 nM
δ opioid receptor (DOR) = δ opioid receptor (DOR) (Homo sapiens, UniProt P41143); assay: Radioligand competition binding, DOR ([3H]-DADLE), HEK293 cell homogenates; conditions: for inhibition at 10 µM: read-out: DOR % (percent inhibition), at 10,000 nM; for DOR % (percent inhibition): at 10,000 nM
µ opioid receptor (MOR) = µ opioid receptor (MOR) (Homo sapiens, UniProt P35372); assay: Radioligand competition binding, MOR ([3H]-DAMGO), HEK293 cell homogenates; conditions: [3H]-DAMGO; for inhibition at 10 µM: read-out: MOR % (percent inhibition), at 10,000 nM; for MOR % (percent inhibition): at 10,000 nM
[2] = read-out: KOR (Ki), [3H]-U69593, HEK293 homogenates

Structure (SMILES)	BZR % (percent inhibition) [1] [%]	Ki [1] [µM]	Ki (κ opioid receptor (KOR)) [µM]	inhibition at 10 µM (κ opioid receptor (KOR)) [%]	inhibition at 10 µM (δ opioid receptor (DOR)) [%]	inhibition at 10 µM (µ opioid receptor (MOR)) [%]	DOR % (percent inhibition) (δ opioid receptor (DOR)) [%]	MOR % (percent inhibition) (µ opioid receptor (MOR)) [%]	KOR % (percent inhibition) (κ opioid receptor (KOR)) [%]	Ki (κ opioid receptor (KOR); [2]) [µM]
C#Cc1ccc2c(c1)C(c1ccccc1F)=N[C@@H](C)c1c(C(=O)OCCC)ncn1-2 [GL-I-32]	98	0.148	0.064	95	14	9				
C[C@H]1N=C(c2ccccc2F)c2cc(Br)ccc2-n2cnc(C(=O)N(C)C)c21 [GL-III-69]	100	0.446	0.511	75	10	0				
C#Cc1ccc2c(c1)C(c1ccccc1F)=N[C@H](C)c1c(C(N)=O)ncn1-2 [MP-III-019.B]	94	0.054	1.53	62	0	2				
C#Cc1ccc2c(c1)C(c1ccccn1)=NCc1c(C(=O)OC)ncn1-2 [MP-III-024]	81	0.277		43	24	0				
C#Cc1ccc2c(c1)C(c1ccccn1)=NCc1c(-c3nc(CC)no3)ncn1-2 [MP-III-080]	88	0.303		47	0	0				
C#Cc1ccc2c(c1)C(c1ccccc1)=NCc1c(-c3cnco3)ncn1-2 [KRM-II-82]	95	0.096	1.2	78	20	5				
C#Cc1ccc2c(c1)C(c1ccccc1F)=N[C@@H](C)c1c(C(=O)SCC)ncn1-2 [GL-I-77]	92	0.124	0.125	95	4	41				
Brc1ccc2c(c1)C(c1ccccn1)=NCc1c(-c3cnco3)ncn1-2 [KRM-II-97]	93	0.14	1.96	62	8	18				
C#Cc1ccc2c(c1)C(c1ccccc1F)=N[C@@H](C)c1c(C(=O)OC3CC3)ncn1-2 [GL-I-38]	96	0.127	0.068	95	16	18				
CCOC(=O)c1ncn2c1[C@@H](C)N=C(c1ccccc1F)c1cc(C3CC3)ccc1-2 [GL-III-42]	62	0.726		86			13	0		
C#Cc1ccc2c(c1)C(c1ccccn1)=N[C@H](C)c1c(C(=O)O)ncn1-2 [GL-II-30]	65	0.431		0	4	20				
C#Cc1ccc2c(c1)C(c1ccccn1)=N[C@H](C)c1c(-c3nc(CC)no3)ncn1-2 [GL-II-54]	66	2.04					0	0	80	0.504
C#Cc1ccc2c(c1)C(c1ccccc1F)=N[C@@H](C)c1c(C(=O)N(C)C)ncn1-2 [GL-I-54]	94	0.09	0.788	78	11	18				
CCOC(=O)c1ncn2c1[C@H](C)N=C(c1ccccc1F)c1cc(C3CC3)ccc1-2 [GL-I-78]	76	0.352					41	32	96	
C#Cc1ccc2c(c1)C(c1ccccc1F)=N[C@H](C)c1c(C(=O)NC(C)C)ncn1-2 [GL-III-66]	88	0.271	0.233	63	0	0				
C[C@H]1N=C(c2ccccc2F)c2cc(Br)ccc2-n2cnc(-c3cnco3)c21 [GL-III-36]	86	0.319					12	0	88	0.246
COC(=O)c1ncn2c1[C@@H](C)N=C(c1ccccc1F)c1cc(Br)ccc1-2 [MP-III-058]	86	0.29	0.237	84	4	0				
